According to ChEMBL document CHEMBL5346973 (J Med Chem, 2023):
Calls of active or inactive are those of the source. The rule behind the calls is not given here. Where a SMILES comes first, the peptide text is derived from it.

Assays:
Assay type in all cases: cell-based
[1] = target: Neuronal acetylcholine receptor subunit alpha-7 (Rattus norvegicus, UniProt Q05941); assay: Antagonist activity at rat alpha7 nACh receptor expressed in Xenopus oocyte assessed as inhibition of acetylcholine-induced response at -70 mV holding potential by voltage-clamp based electrophysiological assay
Chain of Neuronal acetylcholine receptor subunit alpha-7 (Q05941 whole entry): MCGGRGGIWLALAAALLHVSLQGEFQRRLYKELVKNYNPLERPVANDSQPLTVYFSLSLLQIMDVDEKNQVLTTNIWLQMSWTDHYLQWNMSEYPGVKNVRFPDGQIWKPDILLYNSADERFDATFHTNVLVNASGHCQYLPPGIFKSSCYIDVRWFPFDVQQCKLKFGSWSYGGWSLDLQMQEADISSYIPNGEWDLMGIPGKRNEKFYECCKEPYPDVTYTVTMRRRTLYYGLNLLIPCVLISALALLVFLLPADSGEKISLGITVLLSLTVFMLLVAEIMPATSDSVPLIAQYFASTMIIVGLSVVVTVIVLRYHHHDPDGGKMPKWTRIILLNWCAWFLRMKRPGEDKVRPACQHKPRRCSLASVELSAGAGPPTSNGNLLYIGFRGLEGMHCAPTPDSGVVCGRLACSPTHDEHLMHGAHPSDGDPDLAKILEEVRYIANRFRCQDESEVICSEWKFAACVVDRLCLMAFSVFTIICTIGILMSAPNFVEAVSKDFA

[2] = target: Nicotinic acetylcholine receptor alpha9/alpha10 (Rattus norvegicus, UniProt P43144+Q9JLB5); assay: Antagonist activity at rat alpha9alpha10 nACh receptor expressed in Xenopus oocyte assessed as inhibition of acetylcholine-induced response at -70 mV holding potential by voltage-clamp based electrophysiological assay
Chain of Nicotinic acetylcholine receptor alpha9/alpha10 (P43144 whole entry): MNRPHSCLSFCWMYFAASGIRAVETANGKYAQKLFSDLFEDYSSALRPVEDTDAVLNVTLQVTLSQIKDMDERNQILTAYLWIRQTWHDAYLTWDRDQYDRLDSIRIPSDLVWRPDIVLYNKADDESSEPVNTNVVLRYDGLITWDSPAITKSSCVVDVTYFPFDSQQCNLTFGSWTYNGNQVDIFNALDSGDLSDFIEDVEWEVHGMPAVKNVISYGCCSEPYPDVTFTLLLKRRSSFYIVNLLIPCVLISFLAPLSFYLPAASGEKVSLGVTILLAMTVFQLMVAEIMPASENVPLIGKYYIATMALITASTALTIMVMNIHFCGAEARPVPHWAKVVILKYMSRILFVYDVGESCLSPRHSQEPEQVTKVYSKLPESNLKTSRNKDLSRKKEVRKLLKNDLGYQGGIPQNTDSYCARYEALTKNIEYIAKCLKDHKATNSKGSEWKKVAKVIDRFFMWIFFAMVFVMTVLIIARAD
Chain of Nicotinic acetylcholine receptor alpha9/alpha10 (Q9JLB5 whole entry): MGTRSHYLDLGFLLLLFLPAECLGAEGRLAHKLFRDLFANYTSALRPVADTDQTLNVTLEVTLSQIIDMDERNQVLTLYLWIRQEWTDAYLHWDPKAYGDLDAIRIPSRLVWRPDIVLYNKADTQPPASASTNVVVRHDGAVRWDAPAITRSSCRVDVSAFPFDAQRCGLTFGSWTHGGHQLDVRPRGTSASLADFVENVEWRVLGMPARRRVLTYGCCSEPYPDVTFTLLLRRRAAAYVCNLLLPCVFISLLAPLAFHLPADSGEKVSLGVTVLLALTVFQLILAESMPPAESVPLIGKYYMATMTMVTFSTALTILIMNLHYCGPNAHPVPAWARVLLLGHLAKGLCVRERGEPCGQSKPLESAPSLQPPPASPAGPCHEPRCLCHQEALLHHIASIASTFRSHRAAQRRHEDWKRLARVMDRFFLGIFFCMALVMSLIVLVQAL

[3] = target: Nicotinic acetylcholine receptor alpha9/alpha10 (Rattus norvegicus) (UniProt P43144+Q9JLB5); assay: Antagonist activity at rat alpha9alpha10 nACh receptor expressed in Xenopus oocyte assessed as inhibition of acetylcholine-induced response at -70 mV holding potential at 10 uM measured after 5 mins by voltage-clamp based electrophysiological assay

Structure (SMILES)	IC50 [1]	IC50 [2]	Activity [3]
CC[C@H](C)[C@H]1NC(=O)[C@H](CCCNC(=N)N)NC(=O)[C@H](CCCNC(=N)N)NC(=O)[C@@H](NC(=O)[C@H](Cc2ccc(O)cc2)NC(=O)[C@H](CCCNC(=N)N)NC(=O)[C@H](CCCNC(=N)N)NC(=O)[C@H](CCCNC(=N)N)NC(=O)[C@H](CCCNC(=N)N)NC(=O)[C@H](CC(=O)O)NC(=O)[C@H](Cc2ccc(O)cc2)NC(=O)[C@@H]2CCCN2C(=O)[C@H](CO)NC(=O)[C@H](CCCNC(=N)N)NC(=O)[C@@H]2CSSC[C@H](NC(=O)[C@@H](N)[C@@H](C)O)C(=O)N[C@@H](C)C(=O)N[C@@H](CO)C(=O)N[C@@H](CO)C(=O)NCC(=O)N[C@@H](CCCNC(=N)N)C(=O)N[C@@H](Cc3ccc(O)cc3)C(=O)N2)CSSC[C@@H](C(=O)N[C@H](C(=O)O)C(C)C)NC(=O)[C@H](C)NC(=O)[C@H](CC(=O)O)NC(=O)[C@H]([C@@H](C)O)NC1=O	1130 nM	74 nM	–
CC[C@H](C)[C@@H]1NC(=O)[C@H](CCCNC(=N)N)NC(=O)[C@H](CCCNC(=N)N)NC(=O)[C@@H]2CSSC[C@H](NC(=O)[C@H](Cc3ccc(O)cc3)NC(=O)[C@H](CCCNC(=N)N)NC(=O)CNC(=O)[C@H](CO)NC(=O)[C@H](CO)NC(=O)[C@H](C)NC(=O)[C@@H](NC(=O)[C@@H](N)[C@@H](C)O)CSSC[C@@H](C(=O)N[C@H](C(=O)O)C(C)C)NC(=O)[C@H](C)NC(=O)[C@H](CC(=O)O)NC(=O)[C@H]([C@@H](C)O)NC1=O)C(=O)N[C@@H](CCCNC(=N)N)C(=O)N[C@@H](CO)C(=O)N1CCC[C@H]1C(=O)N[C@@H](Cc1ccc(O)cc1)C(=O)N[C@@H](CC(=O)O)C(=O)N[C@@H](CCCNC(=N)N)C(=O)N[C@@H](CCCNC(=N)N)C(=O)N[C@@H](CCCNC(=N)N)C(=O)N[C@@H](CCCNC(=N)N)C(=O)N[C@@H](Cc1ccc(O)cc1)C(=O)N2	9050 nM	37 nM	–
CC[C@H](C)[C@@H]1NC(=O)[C@H](CCCNC(=N)N)NC(=O)[C@H](CCCNC(=N)N)NC(=O)[C@@H](NC(=O)[C@H](Cc2ccc(O)cc2)NC(=O)[C@H](CCCNC(=N)N)NC(=O)[C@H](CCCNC(=N)N)NC(=O)[C@H](CCCNC(=N)N)NC(=O)[C@H](CCCNC(=N)N)NC(=O)[C@H](CC(=O)O)NC(=O)[C@H](Cc2ccc(O)cc2)NC(=O)[C@@H]2CCCN2C(=O)[C@H](CO)NC(=O)[C@H](C)NC(=O)[C@@H]2CSSC[C@H](NC(=O)[C@@H](N)[C@@H](C)O)C(=O)N[C@@H](C)C(=O)N[C@@H](CO)C(=O)N[C@@H](CO)C(=O)N[C@@H](C)C(=O)N[C@@H](CCCNC(=N)N)C(=O)N[C@@H](Cc3ccc(O)cc3)C(=O)N2)CSSC[C@@H](C(=O)N[C@H](C(=O)O)C(C)C)NC(=O)[C@H](C)NC(=O)[C@H](CC(=O)O)NC(=O)[C@H]([C@@H](C)O)NC1=O (HELM PEPTIDE1{T.C.A.S.S.A.R.Y.C.A.S.P.Y.D.R.R.R.R.Y.C.R.R.I.T.D.A.C.V}$PEPTIDE1,PEPTIDE1,2:R3-9:R3|PEPTIDE1,PEPTIDE1,20:R3-27:R3$$$V2.0)	–	> 10000 nM	inactive
CC[C@H](C)[C@@H]1NC(=O)[C@H](CCCNC(=N)N)NC(=O)[C@H](CCCNC(=N)N)NC(=O)[C@@H](NC(=O)[C@H](Cc2ccc(O)cc2)NC(=O)[C@H](C)NC(=O)[C@H](C)NC(=O)[C@H](C)NC(=O)[C@H](C)NC(=O)[C@H](CC(=O)O)NC(=O)[C@H](Cc2ccc(O)cc2)NC(=O)[C@@H]2CCCN2C(=O)[C@H](CO)NC(=O)[C@H](CCCNC(=N)N)NC(=O)[C@@H]2CSSC[C@H](NC(=O)[C@@H](N)[C@@H](C)O)C(=O)N[C@@H](CCCNC(=N)N)C(=O)N[C@@H](CO)C(=O)N[C@@H](CCCNC(=N)N)C(=O)NCC(=O)N[C@@H](CCCNC(=N)N)C(=O)N[C@@H](Cc3ccc(O)cc3)C(=O)N2)CSSC[C@@H](C(=O)N[C@H](C(=O)O)C(C)C)NC(=O)[C@H](C)NC(=O)[C@H](CC(=O)O)NC(=O)[C@H]([C@@H](C)O)NC1=O (HELM PEPTIDE1{T.C.R.S.R.G.R.Y.C.R.S.P.Y.D.A.A.A.A.Y.C.R.R.I.T.D.A.C.V}$PEPTIDE1,PEPTIDE1,2:R3-9:R3|PEPTIDE1,PEPTIDE1,20:R3-27:R3$$$V2.0)	–	> 10000 nM	inactive
CC(C)C[C@H](NC(=O)[C@H](CCCCN)NC(=O)[C@H](CC(N)=O)NC(=O)[C@@H]1CCCN1C(=O)[C@H](CCC(N)=O)NC(=O)[C@H](C)NC(=O)CNC(=O)[C@H](CO)NC(=O)[C@H](CCCCN)NC(=O)[C@H](CCC(=O)O)NC(=O)[C@H](CC(C)C)NC(=O)[C@H](CS)NC(=O)[C@@H](CCCNC(=N)N)NC(=O)[C@@H](N)C(C)C)C(=O)N[C@@H](Cc1ccccc1)C(=O)N[C@@H](CCCNC(=N)N)C(=O)N1CCC[C@H]1C(=O)N1CCC[C@H]1C(=O)N[C@@H](CS)C(=O)N[C@@H](CS)C(=O)N[C@@H](CCC(N)=O)C(=O)N[C@@H](CCCCN)C(=O)NCC(=O)N1CCC[C@H]1C(=O)N[C@@H](CO)C(=O)N[C@@H](Cc1ccccc1)C(=O)N[C@@H](C)C(=O)N[C@@H](CCCNC(=N)N)C(=O)N[C@@H](Cc1cnc[nH]1)C(=O)N[C@@H](CO)C(=O)N[C@@H](CCCNC(=N)N)C(=O)N[C@@H](CS)C(=O)N[C@H](C(=O)N[C@@H](Cc1ccc(O)cc1)C(=O)N[C@@H](Cc1ccc(O)cc1)C(=O)N[C@H](C(=O)N[C@@H](CCC(N)=O)C(=O)N[C@@H](CO)C(=O)N[C@@H](CCCNC(=N)N)C(=O)N[C@@H](CCC(=O)O)C(=O)O)[C@@H](C)O)C(C)C	–	1200 nM	–
CC[C@H](C)[C@@H]1NC(=O)[C@H](CCCNC(=N)N)NC(=O)[C@H](CCCNC(=N)N)NC(=O)[C@@H](NC(=O)[C@H](Cc2ccc(O)cc2)NC(=O)[C@H](CCCNC(=N)N)NC(=O)[C@H](CCCNC(=N)N)NC(=O)[C@H](CCCNC(=N)N)NC(=O)[C@H](CCCNC(=N)N)NC(=O)[C@H](CC(=O)O)NC(=O)[C@H](Cc2ccc(O)cc2)NC(=O)[C@@H]2CCCN2C(=O)[C@H](CO)NC(=O)[C@H](C)NC(=O)[C@@H]2CSSC[C@H](NC(=O)[C@@H](N)[C@@H](C)O)C(=O)N[C@@H](CCCNC(=N)N)C(=O)N[C@@H](CO)C(=O)N[C@@H](CO)C(=O)NCC(=O)N[C@@H](C)C(=O)N[C@@H](Cc3ccc(O)cc3)C(=O)N2)CSSC[C@@H](C(=O)N[C@H](C(=O)O)C(C)C)NC(=O)[C@H](C)NC(=O)[C@H](CC(=O)O)NC(=O)[C@H]([C@@H](C)O)NC1=O (HELM PEPTIDE1{T.C.R.S.S.G.A.Y.C.A.S.P.Y.D.R.R.R.R.Y.C.R.R.I.T.D.A.C.V}$PEPTIDE1,PEPTIDE1,2:R3-9:R3|PEPTIDE1,PEPTIDE1,20:R3-27:R3$$$V2.0)	–	440 nM	–
CC[C@H](C)[C@@H]1NC(=O)[C@H](CCCNC(=N)N)NC(=O)[C@H](CCCNC(=N)N)NC(=O)[C@@H](NC(=O)[C@H](Cc2ccc(O)cc2)NC(=O)[C@H](CCCNC(=N)N)NC(=O)[C@H](CCCNC(=N)N)NC(=O)[C@H](C)NC(=O)[C@H](C)NC(=O)[C@H](CC(=O)O)NC(=O)[C@H](Cc2ccc(O)cc2)NC(=O)[C@@H]2CCCN2C(=O)[C@H](CO)NC(=O)[C@H](CCCNC(=N)N)NC(=O)[C@@H]2CSSC[C@H](NC(=O)[C@@H](N)[C@@H](C)O)C(=O)N[C@@H](CCCNC(=N)N)C(=O)N[C@@H](CO)C(=O)N[C@@H](CO)C(=O)NCC(=O)N[C@@H](CCCNC(=N)N)C(=O)N[C@@H](Cc3ccc(O)cc3)C(=O)N2)CSSC[C@@H](C(=O)N[C@H](C(=O)O)C(C)C)NC(=O)[C@H](C)NC(=O)[C@H](CC(=O)O)NC(=O)[C@H]([C@@H](C)O)NC1=O	–	260 nM	–
CC[C@H](C)[C@@H]1NC(=O)[C@H](C)NC(=O)[C@H](C)NC(=O)[C@@H](NC(=O)[C@H](Cc2ccc(O)cc2)NC(=O)[C@H](C)NC(=O)[C@H](C)NC(=O)[C@H](C)NC(=O)[C@H](C)NC(=O)[C@H](CC(=O)O)NC(=O)[C@H](Cc2ccc(O)cc2)NC(=O)[C@@H]2CCCN2C(=O)[C@H](CO)NC(=O)[C@H](C)NC(=O)[C@@H]2CSSC[C@H](NC(=O)[C@@H](N)[C@@H](C)O)C(=O)N[C@@H](C)C(=O)N[C@@H](CO)C(=O)N[C@@H](CO)C(=O)NCC(=O)N[C@@H](C)C(=O)N[C@@H](Cc3ccc(O)cc3)C(=O)N2)CSSC[C@@H](C(=O)N[C@H](C(=O)O)C(C)C)NC(=O)[C@H](C)NC(=O)[C@H](CC(=O)O)NC(=O)[C@H]([C@@H](C)O)NC1=O (HELM PEPTIDE1{T.C.A.S.S.G.A.Y.C.A.S.P.Y.D.A.A.A.A.Y.C.A.A.I.T.D.A.C.V}$PEPTIDE1,PEPTIDE1,2:R3-9:R3|PEPTIDE1,PEPTIDE1,20:R3-27:R3$$$V2.0)	–	> 10000 nM	inactive
